Literature values in patent US20220339103A1, “Lung-targeted corticosteroid treatment in viral respiratory disease, COVID-19 and ARDS (acute respiratory distress syndrome)” (Bodor Laboratories, Inc., priority 2021, published 2022).
Where two headings read alike, the source gives them in different places.

How the values were obtained:
[1] = test system: cotton pellet granuloma; conditions: for ED50, anti-inflammatory activity in the cotton pellet granuloma test: subcutaneous cotton pellet granuloma test
[2] = test system: thymus; conditions: for TD50, thymolysis potency: subcutaneous cotton pellet granuloma test
[3] = target: T1, rat lung cytosol glucocorticoid receptors (Rattus norvegicus, UniProt P06536); conditions: compared with dexamethasone
T1 construct: from tissue; host or cells: rat lung cytosol
T1 sequence (P06536 1-795): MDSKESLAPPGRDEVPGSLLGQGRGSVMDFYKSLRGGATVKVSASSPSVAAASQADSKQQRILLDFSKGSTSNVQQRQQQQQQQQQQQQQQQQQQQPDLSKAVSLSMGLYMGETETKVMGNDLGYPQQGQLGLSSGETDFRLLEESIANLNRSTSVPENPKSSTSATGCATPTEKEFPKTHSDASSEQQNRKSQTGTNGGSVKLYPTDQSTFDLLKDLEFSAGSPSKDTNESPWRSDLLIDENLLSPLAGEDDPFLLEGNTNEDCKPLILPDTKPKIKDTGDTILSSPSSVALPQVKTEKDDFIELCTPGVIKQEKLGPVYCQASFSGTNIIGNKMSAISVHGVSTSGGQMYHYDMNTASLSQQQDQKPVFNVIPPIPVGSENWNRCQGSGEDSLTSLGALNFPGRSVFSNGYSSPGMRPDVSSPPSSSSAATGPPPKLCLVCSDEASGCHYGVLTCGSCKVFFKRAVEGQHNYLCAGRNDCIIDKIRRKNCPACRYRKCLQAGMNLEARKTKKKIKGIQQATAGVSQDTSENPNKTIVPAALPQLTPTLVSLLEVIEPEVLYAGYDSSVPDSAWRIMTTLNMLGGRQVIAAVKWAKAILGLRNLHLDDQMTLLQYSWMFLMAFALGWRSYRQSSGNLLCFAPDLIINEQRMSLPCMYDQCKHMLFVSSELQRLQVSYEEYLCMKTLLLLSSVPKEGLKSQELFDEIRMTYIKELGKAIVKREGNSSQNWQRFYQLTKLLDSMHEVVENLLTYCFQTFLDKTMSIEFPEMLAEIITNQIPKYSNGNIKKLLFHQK

[4] = test system: seasonal allergic rhinitis (SAR) to grass pollen; conditions: nasal spray, 100-800 μg, 645 SAR patients, vs PLA, p<0.03
[5] = target: Paraoxonase 1 (Homo sapiens, UniProt P27169)
[6] = human vasoconstrictor studies
[7] = test system: intraocular pressure; conditions: long-term use, 28 days or longer; LE 0.2% or 0.5%, prednisolone acetate 1%
[8] = 0.2% ophthalmic suspension, 159 patients treated >1 yr
[9] = test system: hypothalamic-pituitary axis; conditions: at any Loteprednol Etabonate use
[10] = test system: intraocular pressure; conditions: corneal transplant patients developing very high IOP
[11] = betamethasone 17α-valerate = 1.00

Sequence of Paraoxonase 1 (P27169 whole entry): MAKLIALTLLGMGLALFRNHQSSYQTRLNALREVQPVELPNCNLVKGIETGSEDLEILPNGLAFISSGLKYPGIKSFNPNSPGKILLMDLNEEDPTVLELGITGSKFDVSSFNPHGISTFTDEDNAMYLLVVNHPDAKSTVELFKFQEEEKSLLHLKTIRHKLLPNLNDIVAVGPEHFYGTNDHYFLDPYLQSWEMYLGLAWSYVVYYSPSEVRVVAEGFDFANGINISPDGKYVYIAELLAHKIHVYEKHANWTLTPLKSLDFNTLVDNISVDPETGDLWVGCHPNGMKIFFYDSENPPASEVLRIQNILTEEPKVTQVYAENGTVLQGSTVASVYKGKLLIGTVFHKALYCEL

SMILES | Rel.pot., relative inflammatory effect compared to betamethasone [1, 11] | ED50, anti-inflammatory activity in the cotton pellet granuloma test [1] [μg/pellet] | Rel.pot., relative timolysis effect [2, 11] | TD50, thymolysis potency [2] | Rel.pot., relative inflammatory effect compared to betamethasone ([1]; in vivo) | corticosteroid receptor binding [3] | change from baseline in two-week average reflective Total Nasal Symptom Score (TNSS) [4] | hydrolyzing esterase [5] | topical activity [6] | Rel.pot., relative timolysis effect ([2]; in vivo) | IOP elevation greater than or equal to 10 mmHg, share of subjects [7] [%] | adverse effects of long-term use [8] | suppression of the hypothalamic-pituitary axis [9] | IOP after replacing prednisolone acetate with LE [10]
CCC(=O)O[C@]1(C(=O)CCl)[C@@H](C)C[C@H]2[C@@H]3CCC4=CC(=O)C=C[C@]4(C)[C@@]3(F)C(=O)C[C@@]21C [Clobetasone-17α-propi onate (KP) (0.1%), Clobetasone-17α-propi onate] | 29.70 | 2.9 | 19.30 | 11 μg/pellet | – | – | – | – | – | – | – | – | – | –
CCOC(=O)O[C@]1(C(=O)OCCl)CC[C@H]2[C@@H]3CCC4=CC(=O)C=C[C@]4(C)[C@H]3[C@@H](O)C[C@@]21C [Loteprednol Etabonate, chloromethyl 17α-ethoxycarbonyloxy-11β-hydroxyandrosta-1,4-dien-3-one-17β-carboxylate] | – | 178.0 | – | 10,000 μg/pellet | 0.48 | significantly higher than that of dexamethasone | significantly more efficacious than PLA | hydrolyzed by the HDL-connected Paraoxonase 1 | very good topical activity | 0.02 | 0.64 | no reported adverse effects | no significant suppression | all IOP-s were returned to normal
CCCC(=O)O[C@]1(C(=O)CO)CC[C@H]2[C@@H]3CCC4=CC(=O)CC[C@]4(C)[C@H]3[C@@H](O)C[C@@]21C [Hydrocortisone 17α-butyrate (HB) (0.1%), Hydrocortisone 17α-butyrate] | 0.70 | 121.0 | – | 369 μg/pellet | – | – | – | – | – | 0.57 | – | – | – | –
CCCCC(=O)O[C@]1(C(=O)CO)[C@@H](C)C[C@H]2[C@@H]3CCC4=CC(=O)C=C[C@]4(C)[C@@]3(F)[C@@H](O)C[C@@]21C [Betamethasone 17α-valerate (BV) (0.12%), Betamethasone 17α-valerate] | 1.00 | 84.8 | 1.00 | 212 μg/pellet | – | – | – | – | – | – | – | – | – | –
